Data published in patent US8569316B2, “Pyrimido [5,4-D] pyrimidine derivatives for the inhibition of tyrosine kinases” (Boehringer Ingelheim International GmbH, priority 2009, dated 2013).

The compounds below were run against B-Raf (V600E)-kinase (Homo sapiens (Human), UniProt P15056, V600E) (assay: Kinase test B-Raf (V600E)). Settings: 250 μM ATP, biotinylated MEK1 substrate.
Type: biochemical
Protocol: In a dilution series 10 μL of test substance solution are placed in a multiwell plate. The dilution series is selected so that generally a range of concentrations of 2 μM to 0.128 nM or 0.017 nM is covered. If necessary the initial concentration of 2 μM is changed to 50 μM, 10 μM or 0.4 μM or 0.2857 μM and further dilution is carried out accordingly. The final concentration of DMSO is 5%. 10 μL of the B-Raf (V600E)-kinase solution are pipetted in (containing 0.5 ng B-Raf (V600E)-kinase in 20 mM Tris-HCl pH 7.5, 0.1 mM EDTA, 0.1 mM EGTA, 0.286 mM sodium orthovanadate, 10% glycerol, 1 mg/mL bovine serum albumin, 1 mM dithiothreitol) and the mixture is incubated for 1 h at RT under with shaking. The kinase reaction is started by the addition of 20 μL ATP solution [final concentration: 250 μM ATP, 30 mM Tris-HCl pH 7.5, 0.02% Brij, 0.2 mM sodium orthovanadate, 10 mM magnesium acetate, phosphatase cocktail (Sigma, #P2850, dilution recommended by the manufacturer), 0.1 mM EGTA] and 10 μL MEK1 solution [containing 50 ng biotinylated MEK1 (prepared from purified MEK1 according to standard procedure, e.g. with EZ-Link Sulpho-NHS-LC-Biotin reagent, Pierce, #21335) in 50 mM Hepes pH 7.5, 150 mM NaCl, 10% glycerol, 0.02% Brij-35, 0.2 mM PMSF, 0.2 mM benzamidine] and carried out for 60 min at RT with constant shaking. The reaction is stopped by the addition of 12 μL of a 100 mM EDTA solution and incubation is continued for a further 5 min. 55 μL of the reaction solution are transferred into a streptavidin-coated plate (e.g. Streptawell HighBond, Roche, #11989685001) and shaken gently for 1 h at RT, in order to bind biotinylated MEK1 to the plate. After elimination of the liquid the plate is washed five times with 200 μL of 1×PBS and 100 μL solution of primary antibody plus europium-labelled secondary antibody [Anti Phospho-MEK (Ser217/221), Cell Signaling, #9121 and Eu-N1 labeled goat-anti-rabbit antibody, Perkin Elmer, #AD0105], the primary antibody is diluted 1:2000 and the secondary antibody is diluted to 0.4-0.5 μg/mL in Delfia Assay Buffer (Perkin Elmer, #1244-111). After 1 h shaking at RT the solution is poured away and washed five times with 200 μL Delfia Wash Buffer (Perkin Elmer, #4010-0010/#1244-114). After the addition of 200 μL Enhancement Solution (Perkin Elmer, #4001-0010/#1244-105) the mixture is shaken for 10 min at RT and then measured in a Wallac Victor using the program “Delfia Time Resolved Fluorescence (Europium)”. IC50 values are obtained from these dosage-activity curves using a software program (GraphPadPrizm).

Sequence of B-Raf (V600E)-kinase (P15056 whole entry V600E): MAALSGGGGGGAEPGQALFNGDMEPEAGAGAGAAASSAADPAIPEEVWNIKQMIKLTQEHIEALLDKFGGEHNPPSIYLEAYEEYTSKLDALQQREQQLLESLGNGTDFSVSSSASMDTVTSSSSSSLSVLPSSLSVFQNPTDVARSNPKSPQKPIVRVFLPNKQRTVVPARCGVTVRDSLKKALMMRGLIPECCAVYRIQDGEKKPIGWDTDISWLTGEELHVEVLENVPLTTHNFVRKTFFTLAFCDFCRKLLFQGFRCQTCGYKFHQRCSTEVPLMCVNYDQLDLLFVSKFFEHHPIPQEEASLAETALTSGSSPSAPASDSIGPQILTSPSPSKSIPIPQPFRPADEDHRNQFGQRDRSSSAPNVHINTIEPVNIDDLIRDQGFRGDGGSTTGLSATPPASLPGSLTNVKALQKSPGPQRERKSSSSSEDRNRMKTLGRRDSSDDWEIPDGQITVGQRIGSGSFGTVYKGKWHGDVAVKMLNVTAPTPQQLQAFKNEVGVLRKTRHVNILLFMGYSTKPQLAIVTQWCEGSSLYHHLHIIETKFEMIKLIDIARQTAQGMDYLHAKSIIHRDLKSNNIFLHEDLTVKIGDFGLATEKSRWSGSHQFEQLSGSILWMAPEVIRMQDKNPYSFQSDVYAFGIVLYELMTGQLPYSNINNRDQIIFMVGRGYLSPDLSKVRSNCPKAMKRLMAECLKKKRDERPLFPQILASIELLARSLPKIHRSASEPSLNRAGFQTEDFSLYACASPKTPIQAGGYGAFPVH

| SMILES | IC50 [µM] |
| --- | --- |
| Cc1ccc(C(=O)N2CCOCC2)cc1Nc1ncnc2cnc(N3CCOCC3)cc12 [I-4] | > 1.4 |
| COc1ccc(NC(=O)c2ccc(C)c(Nc3ncnc4cnc(N5CCN(C)CC5)cc34)c2)cc1C(F)(F)F [I-2] | 0.224 |
| COc1c(NC(=O)c2ccc(C)c(Nc3ncnc4ccc(N(C)C5CCOC5)nc34)c2)cc(C(C)(C)C)cc1NS(C)(=O)=O (stereo not shown) [III-20] | 0.024 |
| Cc1ccc(C(=O)Nc2cc(C(C)(C)C)on2)cc1Nc1ncnc2ccc(N3CCN(C)CC3)nc12 [III-10] | 0.012 |
| COc1ccc(NC(=O)c2ccc(C)c(Nc3ncnc4ccc(N5CCN(CC6CCN(C)CC6)CC5)nc34)c2)cc1C(F)(F)F [III-15] | 0.026 |
| COc1ccc(NC(=O)c2ccc(C)c(Nc3ncnc4cnc(N5CCCC5)cc34)c2)cc1C(F)(F)F [I-3] | 0.316 |
| Cc1ccc(C(=O)Nc2cc(N3CCN(C)CC3)cc(C(F)(F)F)c2)cc1Nc1ncnc2ccc(N3CCOCC3)nc12 [III-7] | 0.004 |
| Cc1ccc(C(=O)Nc2cc(C(C)(C)C)on2)cc1Nc1ncnc2ccc(N3CCN(CC4CCN(C)CC4)CC3)nc12 [III-12] | 0.012 |
| Cc1ccc(C(=O)Nc2cc(C(C)(C)C)on2)cc1Nc1ncnc2ccc(N3CCOCC3)nc12 [III-2] | 0.032 |
| COc1c(NC(=O)c2ccc(C)c(Nc3ncnc4ccc(N5CCN(C)CC5)nc34)c2)cc(C(C)(C)C)cc1NS(C)(=O)=O [III-18] | 0.225 |
| COc1ccc(NC(=O)c2ccc(C)c(Nc3ncnc4ccc(N(C)C)nc34)c2)cc1C(F)(F)F [III-16] | 0.044 |
| Cc1ccc(C(=O)Nc2cc(C(C)(C)C)n[nH]2)cc1Nc1ncnc2ccc(N3CCOCC3)nc12 [III-5] | 0.007 |
| Cc1ccc(C(=O)n2nc(C(C)(C)C)cc2N)cc1Nc1ncnc2ccc(N3CCOCC3)nc12 [III-4] | 2.06 |
| COc1ccc(NC(=O)c2ccc(C)c(Nc3ncnc4ccc(N5CCN(C)CC5)nc34)c2)cc1C(F)(F)F [III-13] | 0.057 |
| Cc1ccc(C(=O)Nc2cc(CN3CCCC3)cc(C(F)(F)F)c2)cc1Nc1ncnc2ccc(N3CCOCC3)nc12 [III-9] | 0.004 |
| COCCN1CCN(c2ccc3ncnc(Nc4cc(C(=O)Nc5cc(C(C)(C)C)cc(NS(C)(=O)=O)c5OC)ccc4C)c3n2)CC1 [III-19] | 0.476 |
| Cc1ccc(C(=O)Nc2cc(C(C)(C)C)nn2C)cc1Nc1ncnc2ccc(N3CCOCC3)nc12 [III-6] | 0.015 |
| Cc1ccc(C(=O)Nc2cc(N3CCCN(C)CC3)cc(C(F)(F)F)c2)cc1Nc1ncnc2ccc(N3CCOCC3)nc12 [III-8] | 0.005 |
| COc1c(NC(=O)c2ccc(C)c(Nc3ncnc4ccc(NC5CCOC5)nc34)c2)cc(C(C)(C)C)cc1NS(C)(=O)=O (stereo not shown) [III-21] | 0.03 |
| COCCN1CCN(c2ccc3ncnc(Nc4cc(C(=O)Nc5ccc(OC)c(C(F)(F)F)c5)ccc4C)c3n2)CC1 [III-14] | 0.14 |
| COc1ccc(NC(=O)c2ccc(C)c(Nc3ncnc4ccc(N5CCOCC5)nc34)c2)cc1C(F)(F)F [III-1] | 0.011 |
| COc1ccc(NC(=O)c2ccc(C)c(Nc3ncnc4cnc(N5CCOCC5)cc34)c2)cc1C(F)(F)F [I-1] | 0.106 |

Continued, values first:

| IC50 [µM] | SMILES |
| --- | --- |
| 0.008 | Cc1ccc(NC(=O)c2cccc(C(C)(C)C#N)c2)cc1Nc1ncnc2ccc(N3CCN(C)CC3)nc12 [IV-2] |
| 1.46 | COc1c(NC(=O)c2ccc(C)c(Nc3ncnc4ccc(N5CCC(N6CCOCC6)C5)nc34)c2)cc(C(C)(C)C)cc1NS(C)(=O)=O (stereo not shown) [III-26] |
| 1.62 | COCCN1CCN(c2ccc3ncnc(Sc4cc(C(=O)Nc5cc(C(C)(C)C)cc(NS(C)(=O)=O)c5OC)ccc4C)c3n2)CC1 [III-55] |
| 0.583 | CCCN1CCC(Cc2ccc3ncnc(Nc4cc(C(=O)Nc5cc(C(C)(C)C)cc(NS(C)(=O)=O)c5OC)ccc4C)c3n2)CC1 [III-48] |
| 0.17 | COc1c(NC(=O)c2ccc(C)c(Nc3ncnc4ccc(CC5CCNCC5)nc34)c2)cc(C(C)(C)C)cc1NS(C)(=O)=O [III-37] |
| 0.508 | CCN1CCN(c2ccc3ncnc(Nc4cc(C(=O)Nc5cc(C(C)(C)C)cc(NS(C)(=O)=O)c5OC)ccc4C)c3n2)CC1 [III-23] |
| 0.261 | COCCN1CCN(c2ccc3ncnc(Sc4cc(C(=O)Nc5cccc(C(C)(C)C#N)c5)ccc4C)c3n2)CC1 [III-52] |
| 0.011 | Cc1ccc(NC(=O)c2cccc(C(C)(C)C#N)c2)cc1Nc1ncnc2ccc(N3CC[C@H](F)C3)nc12 [IV-4] |
| 0.295 | COc1c(NC(=O)c2ccc(C)c(Nc3ncnc4ccc(C5=CCN(C(C)C)CC5)nc34)c2)cc(C(C)(C)C)cc1NS(C)(=O)=O [III-29] |
| 0.269 | COCCN1CCN(c2ccc3ncnc(Sc4cc(C(=O)Nc5cc(C(C)(C)C)on5)ccc4C)c3n2)CC1 [III-54] |
| 0.443 | COCCN1CCC(c2ccc3ncnc(Nc4cc(C(=O)Nc5cc(C(C)(C)C)cc(NS(C)(=O)=O)c5OC)ccc4C)c3n2)CC1 [III-36] |
| 0.004 | Cc1ccc(NC(=O)c2cccc(C(C)(C)C#N)c2)cc1Nc1ncnc2ccc(N3CCOCC3)nc12 [IV-1] |
| 0.315 | COCCN1CCC(c2ccc3ncnc(Nc4cc(C(=O)Nc5cc(C(C)(C)C)cc(NS(C)(=O)=O)c5OC)ccc4C)c3n2)C1 (stereo not shown) [III-41] |
| 0.005 | Cc1ccc(NC(=O)c2cccc(C(C)(C)C#N)c2)cc1Nc1ncnc2ccc(N[C@H]3CCOC3)nc12 [IV-5] |
| 0.101 | COc1c(NC(=O)c2ccc(C)c(Nc3ncnc4ccc(C5=CCNCC5)nc34)c2)cc(C(C)(C)C)cc1NS(C)(=O)=O [III-27] |
| 0.257 | COc1c(NC(=O)c2ccc(C)c(Nc3ncnc4ccc(C5CCN(C(C)C)CC5)nc34)c2)cc(C(C)(C)C)cc1NS(C)(=O)=O [III-34] |
| 0.496 | COCCN1CCC(Cc2ccc3ncnc(Nc4cc(C(=O)Nc5cc(C(C)(C)C)cc(NS(C)(=O)=O)c5OC)ccc4C)c3n2)CC1 [III-49] |

| IC50 [µM] | SMILES |
| --- | --- |
| 0.018 | COCCN1CCN(c2ccc3ncnc(Nc4cc(NC(=O)c5cccc(C(C)(C)C#N)c5)ccc4C)c3n2)CC1 [IV-3] |
| 0.364 | COc1c(NC(=O)c2ccc(C)c(Nc3ncnc4ccc(CC5CCN(C)CC5)nc34)c2)cc(C(C)(C)C)cc1NS(C)(=O)=O [III-44] |
| 0.229 | COc1c(NC(=O)c2ccc(C)c(Nc3ncnc4ccc(C5CCCNC5)nc34)c2)cc(C(C)(C)C)cc1NS(C)(=O)=O (stereo not shown) [III-42] |
| 0.213 | COc1c(NC(=O)c2ccc(C)c(Nc3ncnc4ccc(CC5CNCCOC5)nc34)c2)cc(C(C)(C)C)cc1NS(C)(=O)=O (stereo not shown) [III-43] |
| 0.344 | COc1c(NC(=O)c2ccc(C)c(Nc3ncnc4ccc(C5=CCN(C)CC5)nc34)c2)cc(C(C)(C)C)cc1NS(C)(=O)=O [III-30] |
| 0.288 | COc1c(NC(=O)c2ccc(C)c(Nc3ncnc4ccc(C5CCN(CC6CC6)CC5)nc34)c2)cc(C(C)(C)C)cc1NS(C)(=O)=O [III-35] |
| 0.479 | CCOCCN1CCC(Cc2ccc3ncnc(Nc4cc(C(=O)Nc5cc(C(C)(C)C)cc(NS(C)(=O)=O)c5OC)ccc4C)c3n2)CC1 [III-50] |
| 0.023 | Cc1ccc(C(=O)Nc2cc(C(C)(C)C)on2)cc1Nc1ncnc2ccc(C3=CCNCC3)nc12 [III-51] |
| 0.553 | COc1c(NC(=O)c2ccc(C)c(Nc3ncnc4ccc(CC5CCN(C(C)C)CC5)nc34)c2)cc(C(C)(C)C)cc1NS(C)(=O)=O [III-46] |
| 0.282 | COc1c(NC(=O)c2ccc(C)c(Nc3ncnc4ccc(C5=CCNC5)nc34)c2)cc(C(C)(C)C)cc1NS(C)(=O)=O [III-38] |
| 0.53 | CCN1CCC(Cc2ccc3ncnc(Nc4cc(C(=O)Nc5cc(C(C)(C)C)cc(NS(C)(=O)=O)c5OC)ccc4C)c3n2)CC1 [III-45] |
| 0.19 | COCCN1CCN(c2ccc3ncnc(Sc4cc(C(=O)Nc5cc(N6CCN(C)CC6)cc(C(F)(F)F)c5)ccc4C)c3n2)CC1 [III-53] |
| 0.05 | COc1c(NC(=O)c2ccc(C)c(Nc3ncnc4ccc(N5CCOCC5)nc34)c2)cc(C(C)(C)C)cc1NS(C)(=O)=O [III-24] |
| 0.151 | COc1c(NC(=O)c2ccc(C)c(Nc3ncnc4ccc(C5CCN(C)CC5)nc34)c2)cc(C(C)(C)C)cc1NS(C)(=O)=O [III-32] |
| 0.185 | CCN1CCC(c2ccc3ncnc(Nc4cc(C(=O)Nc5cc(C(C)(C)C)cc(NS(C)(=O)=O)c5OC)ccc4C)c3n2)CC1 [III-33] |
| 0.504 | COc1c(NC(=O)c2ccc(C)c(Nc3ncnc4ccc(CC5CCN(CC6CC6)CC5)nc34)c2)cc(C(C)(C)C)cc1NS(C)(=O)=O [III-47] |
